Measured values taken from publication PMC8929122, “Application of a Combined Peptidomics and In Silico Approach for the Identification of Novel Dipeptidyl Peptidase-IV-Inhibitory Peptides in In Vitro Digested Pinto Bean Protein Extract” (Current Issues in Molecular Biology, 2021).
Peptide text beside a SMILES is read from it.

Columns and labels:
rat intestinal DPP-IV = target: T1, rat intestinal DPP-IV (Rattus norvegicus, UniProt P14740); assay: In vitro DPP-IV inhibitory activity of synthetic peptides; type: biochemical; conditions: rat intestinal DPP-IV 0.1 U/mL; 0.1 mol/L Tris-HCl pH 7.0; 20 min pre-incubation at 37 °C; glycine-proline-p-nitroanilide 6.4 mmol/L (5 μL); 20 min reaction at 37 °C; absorbance 405 nm; mean ± SD, three replicates; read-out: IC50 value for DPP-IV inhibition
T1 construct: 10 μL of rat intestinal DPP-IV (0.1 U/mL in the assay); from tissue; host or cells: rat intestine
T1 sequence (P14740 whole entry): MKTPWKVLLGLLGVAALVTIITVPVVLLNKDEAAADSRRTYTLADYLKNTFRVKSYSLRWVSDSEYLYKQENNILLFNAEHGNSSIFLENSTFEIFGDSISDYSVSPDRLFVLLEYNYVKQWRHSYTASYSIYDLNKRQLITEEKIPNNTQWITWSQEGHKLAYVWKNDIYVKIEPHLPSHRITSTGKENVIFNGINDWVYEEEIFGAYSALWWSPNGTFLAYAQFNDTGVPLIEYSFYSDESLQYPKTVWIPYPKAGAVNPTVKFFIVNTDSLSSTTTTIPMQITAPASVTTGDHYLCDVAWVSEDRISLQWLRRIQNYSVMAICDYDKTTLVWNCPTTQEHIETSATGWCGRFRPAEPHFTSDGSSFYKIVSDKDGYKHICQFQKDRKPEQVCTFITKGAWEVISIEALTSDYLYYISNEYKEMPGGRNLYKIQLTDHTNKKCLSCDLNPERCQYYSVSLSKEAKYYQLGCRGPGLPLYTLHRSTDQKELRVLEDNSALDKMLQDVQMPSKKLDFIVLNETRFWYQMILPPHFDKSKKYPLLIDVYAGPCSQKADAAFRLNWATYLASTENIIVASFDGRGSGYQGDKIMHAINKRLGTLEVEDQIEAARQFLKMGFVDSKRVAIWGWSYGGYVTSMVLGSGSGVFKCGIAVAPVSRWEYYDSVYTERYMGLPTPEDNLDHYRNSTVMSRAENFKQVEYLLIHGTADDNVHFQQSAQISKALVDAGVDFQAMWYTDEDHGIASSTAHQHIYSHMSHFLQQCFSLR
Experimental: Selected synthetic peptides (Bio-Fab Research, Rome, Italy) were then tested for their DPP-IV-inhibitory activity as reported in Tagliazucchi et al.. Briefly, 145 μL of 0.1 mol/L Tris-HCl buffer (pH 7.0) were mixed with 10 μL of rat intestinal DPP-IV (0.1 U/mL in the assay) and 40 μL of synthetic peptides at different concentrations, in a 96-well plate. The reaction was started after 20 min of pre-incubation at 37 °C by the addition of 5 μL of 6.4 mmol/L glycine-proline-p-nitroanilide. After a further 20 min of reaction at 37 °C, the amount of released p-nitroanilide was measured by reading the absorbance at 405 nm in a microplate reader. Results were expressed as IC50 values (peptide concentration that inhibit the 50% of the enzymatic activity) by plotting the peptide concentration (base-10 logarithm) as a function of the enzyme inhibition percentage.
All data are reported as mean ± standard deviation (SD) for three replicates for each prepared sample. GraphPad Prism 6.0 (GraphPad Software, San Diego, CA, USA) was used for univariate analysis of variance (ANOVA) with Tukey post-hoc test. The differences were considered significant when p < 0.05.

[1] = system: Dipeptidyl peptidase IV (DPP-IV); conditions: Parmigiano Reggiano peptides, previous study; cited from earlier work
Text: Table 1 Peptides with previously reported biological activity identified in in vitro-digested Pinto bean protein extract. | column: Bioactivity ^1 || The described approach was applied in a previous study on Parmigiano Reggiano samples allowing the selection of 6 candidates to be tested in vitro starting from a pool of 415 peptides identified by peptidomics techniques. […] The high inhibitory potency of SAPI was probably due to the combined presence of an A residue in second position and a P residue in third position. […] The PepSite2 server was used to predict the possible interaction between SAPI and the DPP-IV binding sites by analyzing the enzyme active site residues closer to the peptide amino ...

IC50 (rat intestinal DPP-IV)	Compound	DPP-IV inhibition (in words) [1]
480.6 ± 2.1 µM	CC(C)[C@H](NC(=O)[C@@H](N)Cc1ccccc1)C(=O)N1CCC[C@H]1C(=O)N[C@@H](Cc1c[nH]cn1)C(=O)O [FVPH] (H-FVPH-OH)	–
57.7 µM	CC[C@H](C)[C@H](NC(=O)[C@@H]1CCCN1C(=O)[C@H](C)NC(=O)[C@@H](N)CO)C(=O)O [SAPI] (H-SAPI-OH)	–
189 ± 1.5 µM	CC[C@H](C)[C@H](NC(=O)[C@@H](N)CO)C(=O)N1CCC[C@H]1C(=O)N[C@@H](CCCNC(=N)N)C(=O)O [SIPR] (H-SIPR-OH)	–
–	APFPE	novel potent DPP-IV inhibitor
